Reference: PMC11231114 (EJNMMI Research, 2024)

Assay: Ex vivo biodistribution after i.v. injection
Type: in vivo, Wistar rats
Procedure: Approximately 0.2 mL/31.1 MBq of compound was administered i.v. At established time points after injection (15 min, 30 min, 1 h, 2 h, 4 h and 6 h), the animals were euthanized by cervical dislocation and dissected. Selected organs and tissues were weighed, and their radioactivity was measured using a NaI(Tl) crystal gamma counter. The results were adjusted for the radioactive decay of ^18F. The physiological distribution was calculated and expressed in terms of the percentage of administrated dose found in each of the selected organs (%ID) or per gram of tissues/organ (%ID/g) with suitable standards of the injected dose.
The results of radiopharmaceutical uptake are presented as a percentage of the dose administered per gram of tissue (%ID/g) in the form of an average with standard deviation (%ID/g; mean ± standard deviation (SD)). Where applicable, statistical analysis was performed with one-way analysis of variance (ANOVA) using GraphPad Prism software (GraphPad Software, La Jolla, CA, USA).

[1] = 15 min after dosing, listed as [18F]SYN2

Structure (SMILES): CN(C)c1ccc2cc3ccc(N(C)C)cc3[n+](CC[18F])c2c1 [[^18F]SYN2]
- Mean %ID, Brain (15 min after dosing): 0.23 (0.09) %ID
- Mean %ID, Heart (15 min after dosing): 2.15 (0.18) %ID
- Mean %ID, Intestine (15 min after dosing): 17.1 ± 1.8 %ID
- Mean %ID, Kidneys (15 min after dosing): 13.4 ± 4.0 %ID
- Mean %ID, Liver (15 min after dosing): 7.57 (0.96) %ID
- Mean %ID, Lungs (15 min after dosing): 3.88 (0.36) %ID
- Mean %ID, Pancreas (15 min after dosing): 1.33 (0.23) %ID
- Mean %ID, Rest of the body (15 min after dosing): 51.01 (2.66) %ID
- Mean %ID, Spleen (15 min after dosing): 1.01 (0.20) %ID
- Mean %ID, Stomach (15 min after dosing): 1.99 (0.68) %ID
- Mean %ID, Urine (15 min after dosing): 0.46 (0.31) %ID
- Mean %ID/g, Blood (15 min after dosing): 0.33 (0.04) %ID/g
- Mean %ID/g, Brain (15 min after dosing): 0.13 (0.15) %ID/g
- Mean %ID/g, Heart (15 min after dosing): 3.02 %ID/g
- Mean %ID/g, Intestine (15 min after dosing): 0.98 (0.10) %ID/g
- Mean %ID/g, Kidneys (15 min after dosing): 7.07 (1.77) %ID/g
- Mean %ID/g, Liver (15 min after dosing): 0.89 (0.14) %ID/g
- Mean %ID/g, Lungs (15 min after dosing): 3.04 (0.55) %ID/g
- Mean %ID/g, Muscle (15 min after dosing): 0.82 (0.13) %ID/g
- Mean %ID/g, Pancreas (15 min after dosing): 2.22 (0.24) %ID/g
- Mean %ID/g, Spleen (15 min after dosing): 1.96 (0.51) %ID/g
- Mean %ID/g, Stomach (15 min after dosing): 1.65 (0.94) %ID/g
- Mean %ID, Intestine [1]: 17.12 (1.81) %ID
- Mean %ID, Kidneys [1]: 13.35 (3.97) %ID
- Mean %ID, Brain (30 min after dosing): 0.19 (0.01) %ID
- Mean %ID, Heart (30 min after dosing): 2.19 (0.26) %ID
- Mean %ID, Intestine (30 min after dosing): 18.27 (1.40) %ID
- Mean %ID, Kidneys (30 min after dosing): 14.01 (3.78) %ID
- Mean %ID, Liver (30 min after dosing): 6.87 (1.10) %ID
- Mean %ID, Lungs (30 min after dosing): 2.64 (0.47) %ID
- Mean %ID, Pancreas (30 min after dosing): 0.97 (0.32) %ID
- Mean %ID, Rest of the body (30 min after dosing): 51.34 (1.73) %ID
- Mean %ID, Spleen (30 min after dosing): 0.79 (0.16) %ID
- Mean %ID, Stomach (30 min after dosing): 1.54 (0.12) %ID
- Mean %ID, Urine (30 min after dosing): 0.53 (0.25) %ID
- Mean %ID/g, Blood (30 min after dosing): 0.14 (0.02) %ID/g
- Mean %ID/g, Brain (30 min after dosing): 0.11 (0.00) %ID/g
- Mean %ID/g, Heart (30 min after dosing): 2.96 (0.49) %ID/g
- Mean %ID/g, Intestine (30 min after dosing): 1.29 (0.40) %ID/g
- Mean %ID/g, Kidneys (30 min after dosing): 7.22 (2.09) %ID/g
- Mean %ID/g, Liver (30 min after dosing): 0.74 (0.11) %ID/g
- Mean %ID/g, Lungs (30 min after dosing): 1.85 (0.24) %ID/g
- Mean %ID/g, Muscle (30 min after dosing): 0.46 (0.11) %ID/g
- Mean %ID/g, Pancreas (30 min after dosing): 1.75 (0.56) %ID/g
- Mean %ID/g, Spleen (30 min after dosing): 1.59 (0.41) %ID/g
- Mean %ID/g, Stomach (30 min after dosing): 1.11 (0.08) %ID/g
- heart/liver ratio (1 h, based on %ID/g): 7.0 ± 1.8
- heart/lungs ratio (1 h, based on %ID/g): 2.1 ± 0.2
- Mean %ID, Brain (1 h after dosing): 0.22 (0.12) %ID
- Mean %ID, Heart (1 h after dosing): 2.23 (0.11) %ID
- Mean %ID, Intestine (1 h after dosing): 20.18 (3.19) %ID
- Mean %ID, Kidneys (1 h after dosing): 12.91 (2.36) %ID
- Mean %ID, Liver (1 h after dosing): 3.66 (0.83) %ID
- Mean %ID, Lungs (1 h after dosing): 1.89 (0.23) %ID
- Mean %ID, Pancreas (1 h after dosing): 0.93 (0.01) %ID
- Mean %ID, Rest of the body (1 h after dosing): 46.30 (1.89) %ID
- Mean %ID, Spleen (1 h after dosing): 0.60 (0.10) %ID
- Mean %ID, Stomach (1 h after dosing): 1.84 (0.47) %ID
- Mean %ID, Urine (1 h after dosing): 1.59 (0.30) %ID
- Mean %ID/g, Blood (1 h after dosing): 0.08 (0.02) %ID/g
- Mean %ID/g, Brain (1 h after dosing): 0.12 (0.06) %ID/g
- Mean %ID/g, Heart (1 h after dosing): 3.0 ± 0.2 %ID/g
- Mean %ID/g, Intestine (1 h after dosing): 1.04 (0.18) %ID/g
- Mean %ID/g, Kidneys (1 h after dosing): 6.76 (1.23) %ID/g
- Mean %ID/g, Liver (1 h after dosing): 0.45 (0.11) %ID/g
- Mean %ID/g, Lungs (1 h after dosing): 1.42 (0.15) %ID/g
- Mean %ID/g, Muscle (1 h after dosing): 0.58 (0.18) %ID/g
- Mean %ID/g, Pancreas (1 h after dosing): 1.63 (0.16) %ID/g
- Mean %ID/g, Spleen (1 h after dosing): 1.15 (0.23) %ID/g
- Mean %ID/g, Stomach (1 h after dosing): 1.33 (0.33) %ID/g
- Mean %ID/g, Heart (1 h after dosing, listed as [18F]SYN2): 2.99 (0.20) %ID/g
- heart/blood ratio (1 h post-injection): 37
- Mean %ID, Brain (2 h after dosing): 0.12 (0.01) %ID
- Mean %ID, Heart (2 h after dosing): 2.03 (0.23) %ID
- Mean %ID, Intestine (2 h after dosing): 25.93 (2.92) %ID
